Here are results for nine molecules from US11957759B1, “Rapidly accelerated fibrosarcoma (RAF) degrading compounds and associated methods of use” (Arvinas Operations, Inc., priority 2022, dated 2024).

What is called DC50 is the midpoint of the concentration-degradation curve. The Dmax is the greatest extent of degradation seen.

One assay concerns the target T1, B-RAF G466V (Homo sapiens, UniProt P15056, G466V).
T1 construct: expressed in transfected cells; host or cells: T-Rex 293 cells (Invitrogen #R71007)
The assay can be described thus: Target protein degradation, assay D: T-Rex 293 cells, HA-BRAF_G466V, 384 well format. The format is cell-based. The following applies: T-Rex 293 HA-BRAF_G466V cells, 24 hours, Examples 83-269; for DC50: Assay D; for Dmax: T-REx-293, Assay D. On the procedure:
D. T-Rex 293 Cells (384 Well Format)
(§1) T-Rex 293 cells were purchased from Invitrogen (#R71007), and stably transfected with a pcDNA4/TO_HA-BRAF_G466V construct, using 400 ug Zeocin for selection. G466V cells are plated in DMEM media (Gibco #11965118) containing 10% FBS (Gibco #16000044), 1% penicillin-streptomycin (ThermoFisher #15140122), 1:250 zeocin (Invitrogen #R-25005), and 1 ng/mL doxycycline (Selleckchem #4163) at a density of 7,500 cells/well in 45 μl on PDL coated, black clear bottom 384 well plates (Corning #354663) and incubated at 37° C.+5% CO2 for 24 hours. The following day, PROTAC compounds in a 1:3 11 point dilution are diluted into DMEM media using an Agilent Bravo. 5 ul of PROTACs suspended in DMEM media are added to the cells, with a final assay concentration ranging from 300 nM to 5 pM in 0.5% DMSO. Plates are incubated at 37° C.+5% CO2 for 24 hours. At the end of treatment, media is aspirated, and cells are fixed in 50 uL 4% PFA (EMS #15710) in PBS++(PBS, 1 mM CaCl, 1 mM MgCl) at RT for 15 minutes. Cells are washed 2× with 60 uL PBS++ and permeabilized in 50 uL 1% Triton X-100 (Sigma #93443) in PBS++ for 5 minutes at RT. Cells are washed in PBS++ prior to blocking with 50 uL Licor blocking buffer (Licor #927-60001) for 1 hour at RT. HA-tagged BRAF was stained using 50 uL HA antibody (CST #3724) at 1:1000 in Licor blocking buffer for two hours at RT. Primary is aspirated before adding 50 ul of secondary antibody solution containing 1:1000 Hoechst (ThermoFisher #62249), 1:1000 HCS CellMask Deep Red Stain (ThermoFisher #H32721), and 1:5000 goat anti-rabbit IgG Alexa-Fluor 488 (ThermoFisher #A32731) in PBS++ for 1 hr at RT. Plates are washed 4× with 60 uL PBS++, then sealed with Adhesive Black Light Absorbing Film (VWR #89087-692) and imaged on the ThermoFisher CX7 PRO high content instrument. BRAF intensity is quantified in HCS Studio software (ThermoFisher), using a custom script, exported, analyzed using KNIME, and curve curation is performed in an ELN (Scilligence). Cell toxicity is measured via comparing number of nuclei in PROTAC treated wells to DMSO controls.
(§2) The concentration of an exemplary compound that leads to half maximal degradation (DC50) as well as the maximum degradation observed (Dmax, conventionally expressed as a percentage of control) is shown below in Table 2.

A further assay addresses T2, B-RAF V600E (Homo sapiens, UniProt P15056, V600E).
T2 construct: expressed in transfected cells; host or cells: T-Rex 293 cells (Invitrogen #R71007)
The assay can be described thus: Target protein degradation, assay C: T-Rex 293 cells, HA-BRAF_V600E, 384 well format. The format is cell-based. Particulars: T-Rex 293 HA-BRAF_V600E cells, 24 hours, Examples 83-269; for DC50: Assay C; for Dmax: T-REx-293, Assay C. On the procedure: C. T-Rex 293 Cells (384 Well Format)
as §1, with “pcDNA4/TO_HA-BRAF_V600E” for “pcDNA4/TO_HA-BRAF_G466V”, “V600E” for “G466V”
as §2

Molecules are shown by their SMILES.

T2 sequence (P15056 whole entry V600E): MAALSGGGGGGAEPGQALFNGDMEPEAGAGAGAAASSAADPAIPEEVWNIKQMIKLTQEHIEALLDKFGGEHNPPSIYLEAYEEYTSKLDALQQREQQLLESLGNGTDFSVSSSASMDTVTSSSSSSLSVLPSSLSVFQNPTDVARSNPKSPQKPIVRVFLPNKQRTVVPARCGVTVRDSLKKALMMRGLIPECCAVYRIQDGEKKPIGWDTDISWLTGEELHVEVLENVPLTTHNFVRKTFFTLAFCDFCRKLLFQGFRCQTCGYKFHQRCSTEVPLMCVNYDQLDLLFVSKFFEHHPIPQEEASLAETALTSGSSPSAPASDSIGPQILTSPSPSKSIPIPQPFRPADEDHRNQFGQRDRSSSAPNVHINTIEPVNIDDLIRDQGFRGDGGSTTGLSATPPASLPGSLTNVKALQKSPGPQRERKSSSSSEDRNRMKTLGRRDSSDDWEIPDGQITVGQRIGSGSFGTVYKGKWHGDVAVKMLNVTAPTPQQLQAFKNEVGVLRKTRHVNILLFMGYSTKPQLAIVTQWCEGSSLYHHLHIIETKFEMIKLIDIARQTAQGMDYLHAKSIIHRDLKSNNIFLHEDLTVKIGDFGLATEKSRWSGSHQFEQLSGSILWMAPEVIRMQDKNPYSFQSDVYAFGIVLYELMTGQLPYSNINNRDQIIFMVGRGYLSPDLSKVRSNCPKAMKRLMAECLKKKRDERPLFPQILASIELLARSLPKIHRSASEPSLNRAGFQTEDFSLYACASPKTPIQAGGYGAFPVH
T1 sequence (P15056 whole entry G466V): as the sequence (P15056 whole entry V600E) above, with G466V, E600V counted along it

Regarding `N#Cc1c(NS(=O)(=O)N2CC[C@@H](F)C2)ccc(F)c1Oc1ccc2ncn(-c3ccc(N4CCC(c5ccc6c(c5)C(=O)N(C5CCC(=O)NC5=O)C6=O)CC4)nc3)c(=O)c2c1` (stereo partly drawn) [Example 135, (3R)-N-(2-cyano-3-{[3-(6-{4-[2-(2,6-dioxopiperidin-3-yl)-1,3-dioxo-2,3-dihydro-1H-isoindol-5-yl]piperidin-1-yl}pyridin-3-yl)-4-oxo-3,4-dihydroquinazolin-6-yl]oxy}-4-fluorophenyl)-3-fluoropyrrolidine-1-sulfonamide], the DC50 at B-RAF G466V is greater than 30 nM; at B-RAF V600E it was greater than 500 nM.
At B-RAF G466V, `N#Cc1c(NS(=O)(=O)N2CC[C@@H](F)C2)ccc(F)c1Oc1ccc2ncn(-c3ccc(C4CCN([C@H]5C[C@H](OC6CCN(c7ccc8c(c7)CN(C7CCC(=O)NC7=O)C8=O)CC6)C5)CC4)cc3)c(=O)c2c1` (stereo partly drawn) [Example 249, (3R)—N-(2-cyano-4-fluoro-3-{[4-oxo-3-(4-{1-[(1r,3r)-3-({1-[2-(2,6-dioxopiperidin-3-yl)-1-oxo-2,3-dihydro-1H-isoindol-5-yl]piperidin-4-yl}oxy)cyclobutyl]piperidin-4-yl}phenyl)-3,4-dihydroquinazolin-6-yl]oxy}phenyl)-3-fluoropyrrolidine-1-sulfonamide] gave a DC50 of 1 to 10 nM and a Dmax of 35 to 70%. This molecule had a DC50 at B-RAF V600E greater than 500 nM.
At B-RAF G466V, `COc1ccc(N2CCC(CN3CCN(c4ccc(-n5cnc6ccc(Oc7c(F)ccc(NS(=O)(=O)N8CC[C@@H](F)C8)c7C#N)cc6c5=O)cn4)CC3)CC2)cc1C(=O)NC1CCC(=O)NC1=O` (stereo partly drawn) [Example 141, 5-(4-{[4-(5-{6-[2-cyano-6-fluoro-3-({[(3R)-3-fluoropyrrolidin-1-yl]sulfonyl}amino)phenoxy]-4-oxo-3,4-dihydroquinazolin-3-yl}pyridin-2-yl)piperazin-1-yl]methyl}piperidin-1-yl)-N-(2,6-dioxopiperidin-3-yl)-2-methoxybenzamide] registered a DC50 of 1 to 10 nM and a Dmax of no more than 35%. Further, on B-RAF V600E, the DC50 is 50 to 500 nM and the Dmax was no more than 35%.
At B-RAF G466V, `N#Cc1c(NS(=O)(=O)N2CC[C@@H](F)C2)ccc(F)c1Oc1ccc2ncn(-c3ccc(C4CCCN(CC5CCN(c6ccc7c(c6)CN([C@H]6CCC(=O)NC6=O)C7=O)CC5)C4)cc3)c(=O)c2c1` (stereo partly drawn) [Example 207, (3R)-N-(2-cyano-3-{[3-(4-{1-[(1-{2-[(3S)-2,6-dioxopiperidin-3-yl]-1-oxo-2,3-dihydro-1H-isoindol-5-yl}piperidin-4-yl)methyl]piperidin-3-yl}phenyl)-4-oxo-3,4-dihydroquinazolin-6-yl]oxy}-4-fluorophenyl)-3-fluoropyrrolidine-1-sulfonamide] gave a DC50 of 1 to 10 nM and a Dmax of 35 to 70%. For the same molecule, on B-RAF V600E, the DC50 is 50 to 500 nM and the Dmax is no less than 70%.
`N#Cc1c(NS(=O)(=O)N2CC[C@@H](F)C2)ccc(F)c1Oc1ccc2ncn(-c3cnc(N4CCC(C5CN(c6ccc7c(c6)C(=O)N(C6CCC(=O)NC6=O)C7=O)C5)CC4)nc3)c(=O)c2c1` (stereo partly shown) [Example 155]: on B-RAF G466V, the DC50 was 1 to 10 nM and the Dmax is no more than 35%. The molecule further gave a DC50 on B-RAF V600E greater than 500 nM.
On B-RAF G466V, `N#Cc1c(NS(=O)(=O)N2CC[C@@H](F)C2)ccc(F)c1Oc1ccc2ncn(-c3ccc(N4CCC(CN5CCC6(CC5)CCN(c5ccc7c(c5)C(=O)N(C5CCC(=O)NC5=O)C7=O)CC6)CC4)nc3)c(=O)c2c1` (stereo partly drawn) [Example 146, (3R)-N-{2-cyano-3-[(3-{6-[4-({9-[2-(2,6-dioxopiperidin-3-yl)-1,3-dioxo-2,3-dihydro-1H-isoindol-5-yl]-3,9-diazaspiro[5.5]undecan-3-yl}methyl)piperidin-1-yl]pyridin-3-yl}-4-oxo-3,4-dihydroquinazolin-6-yl)oxy]-4-fluorophenyl}-3-fluoropyrrolidine-1-sulfonamide] showed a DC50 of 1 to 10 nM and a Dmax of 35 to 70%. At B-RAF V600E, the DC50 lay within 5 to 50 nM and the Dmax lay in the range of 35 to 70%.
For the molecule `N#Cc1c(NS(=O)(=O)N2CC[C@@H](F)C2)ccc(F)c1Oc1ccc2ncn(-c3ccc(N4CCC(CN5CC6(C5)CN(c5cccc7c5C(=O)N(C5CCC(=O)NC5=O)C7=O)C6)CC4)nc3)c(=O)c2c1` (stereo partly drawn) [Example 173, (3R)-N-{2-cyano-3-[(3-{6-[4-({6-[2-(2,6-dioxopiperidin-3-yl)-1,3-dioxo-2,3-dihydro-1H-isoindol-4-yl]-2,6-diazaspiro[3.3]heptan-2-yl}methyl)piperidin-1-yl]pyridin-3-yl}-4-oxo-3,4-dihydroquinazolin-6-yl)oxy]-4-fluorophenyl}-3-fluoropyrrolidine-1-sulfonamide], the DC50 on B-RAF G466V is greater than 30 nM. On B-RAF V600E, this molecule returned a DC50 of 50 to 500 nM and a Dmax of 35 to 70%.
For the molecule `N#Cc1c(NS(=O)(=O)N2CC[C@@H](F)C2)ccc(F)c1Oc1ccc2ncn(-c3ccc(N4CC5(CCN(CC6CCN(c7ccc8c(c7)CN([C@H]7CCC(=O)NC7=O)C8=O)CC6)CC5)C4)cc3)c(=O)c2c1` [Example 192, (3R)-N-(2-cyano-3-{[3-(4-{7-[(1-{2-[(3S)-2,6-dioxopiperidin-3-yl]-1-oxo-2,3-dihydro-1H-isoindol-5-yl}piperidin-4-yl)methyl]-2,7-diazaspiro[3.5]nonan-2-yl}phenyl)-4-oxo-3,4-dihydroquinazolin-6-yl]oxy}-4-fluorophenyl)-3-fluoropyrrolidine-1-sulfonamide], at B-RAF G466V, the DC50 is 1 to 10 nM and the Dmax was 35 to 70%. Besides, at B-RAF V600E, the DC50 fell in the range of 50 to 500 nM and the Dmax lay in the range of 35 to 70%.
On B-RAF G466V, `N#Cc1c(NS(=O)(=O)N2CC[C@@H](F)C2)ccc(F)c1Oc1ccc2ncn(-c3ccc(N4CC(CN5CCN(C6CCN(c7ccc8c(c7)C(=O)N(C7CCC(=O)NC7=O)C8=O)CC6)CC5)C4)nc3)c(=O)c2c1` (stereo partly drawn) [Example 170, (3R)-N-(2-cyano-3-{[3-(6-{3-[(4-{1-[2-(2,6-dioxopiperidin-3-yl)-1,3-dioxo-2,3-dihydro-1H-isoindol-5-yl]piperidin-4-yl}piperazin-1-yl)methyl]azetidin-1-yl}pyridin-3-yl)-4-oxo-3,4-dihydroquinazolin-6-yl]oxy}-4-fluorophenyl)-3-fluoropyrrolidine-1-sulfonamide] registered a DC50 of 1 to 10 nM and a Dmax of no more than 35%. For the same molecule, at B-RAF V600E, the DC50 was 5 to 50 nM and the Dmax is no more than 35%.
